Data taken from paper PMC5923396 (Marine Drugs, 2018).
Like-named read-outs stand apart in the source and are kept apart here.

Assays:
homopentameric α1 GlyR = tested on: homopentameric α1 GlyR; design: method as in PMID 24686559; conditions: cited from earlier work
mice [1] = test: In vivo toxicity in mice (literature); conditions: corresponds to 210 mg/kg
[2] = biological target: T1, Torpedo californica muscle-type nAChR (Tetronarce californica, UniProt P02710+P02714+P02718); test: Intrinsic tryptophan fluorescence quenching; format: binding; conditions: 2 μM MG; λex 280 nm, λem 340 nm; prevented by α-Bgt pre-incubation
T1 construct: from tissue; host or cells: Torpedo californica electric organ membranes
Procedure: Intrinsic tryptophane fluorescence detection. Electric organ membranes of Torpedo californica at the final concentration of 1 nM of toxin-binding sites in a 20 mM Tris-HCl buffer were mixed with Makaluvamine G (final concentration 2 μM) and the control membranes were pre-incubated with 1 μM αBgt for 30 min. Measurements were done on a Cary Eclipse (Agilent, Santa Clara, CA, USA) spectrofluorimeter with a standard kinetics software (version 1.2) with excitation wavelength 280 nm and emission wavelength 340 nm (both with 5 nm slits). The data were exported to csv files and analyzed in the LibreOffice 6.0 Calc software (The Document Foundation, Berlin, Germany).

rat α4β2 nAChR = biological target: T2, rat α4β2 nAChR (Rattus norvegicus, UniProt P09483+P12390); test: Two-electrode voltage clamp, ACh-evoked currents in Xenopus oocytes; format: cell-based
T2 construct: expressed in transfected cells; host or cells: Xenopus oocytes injected with plasmid DNA (pcDNA 3.1 vector)

murine muscle nAChR = biological target: T3, murine muscle nAChR (Mus musculus, UniProt P02716+P04756+P20782); test: Two-electrode voltage clamp, acetylcholine-evoked current in Xenopus oocytes; format: cell-based; conditions: for inhibition at 2.5 µM: holding potential −70 mV, read-out: inhibition extent, peak current amplitude
T3 construct: expressed in transfected cells; host or cells: Xenopus oocytes injected with plasmid DNA (pRBG4 vector)

topoisomerase I = biological target: topoisomerase I; design: method as in doi:10.1016/S0040-4020(01)96256-8; conditions: read-out: IC50 topoisomerase I inhibiting; cited from earlier work
α1β3γ2 GABAAR [3] = biological target: T4, α1β3γ2 GABAAR (Mus musculus, UniProt P62812+P63080); test: Fluorescent α-Ctx competition assay on Neuro2a cells; format: binding, murine; design: expressed in transfected cells; host or cells: mouse neuroblastoma Neuro2a cells, transient transfection; conditions: 50 μM MG
mice [4] = tested on: mice; design: method as in doi:10.1016/S0040-4020(01)96256-8; conditions: cited from earlier work
[5] = biological target: T5, wild-type (WT) muscle nAChR (Mus musculus, UniProt P02716+P04756+P20782); test: Fluorescent detection of cytoplasmic Ca2+ rise in transfected Neuro2a cells (Case12); format: cell-based; conditions: 2.5 μM MG, Ca2+ fluorescence
T5 construct: expressed in transfected cells; host or cells: mouse neuroblastoma Neuro2a cells, transient co-transfection with the Case12 calcium sensor

α4β2 nAChR = α4β2 nAChR (Rattus norvegicus, UniProt P09483+P12390); format: binding; conditions: test ligand concentrations up to 1 mM
different types of cells = tested on: different types of cells; design: method as in doi:10.1016/S0040-4020(01)96256-8; conditions: cited from earlier work
α1β3γ2 GABAAR [6] = biological target: T4, α1β3γ2 GABAAR; test: Two-electrode voltage clamp, GABA-evoked currents in Xenopus oocytes; format: cell-based, murine; conditions: 25 μM MG; surmountable by higher GABA concentrations
human α7 nAChR = tested on: human α7 nAChR; design: method as in PMID 24686559; conditions: cited from earlier work
GABAAR = conditions: cited from earlier work
[7] = design: method as in earlier work; conditions: cited from earlier work

Molecule	inhibition of α1 GlyR (homopentameric α1 GlyR)	dose not toxic to mice, molar (mice [1])	intrinsic Trp fluorescence quenching [2]	inhibition of ACh-evoked currents (rat α4β2 nAChR; high micromolar range (25 μM MG, 50 μM acetylcholine))	time to recovery of normal current amplitude after washout (rat α4β2 nAChR; reversibility of inhibition, data not shown)	inhibition at 2.5 µM (murine muscle nAChR; 2.5 μM MG co-applied with 10 μM acetylcholine)	inhibition at 2.5 µM (murine muscle nAChR; 2.5 μM MG co-applied with 1000 μM acetylcholine)	dependence of inhibition on membrane potential (open-channel block) (murine muscle nAChR; 2.5 μM MG, 30 μM acetylcholine, −30 to −100 mV, current amplitude and net charge)	IC50 (topoisomerase I)	inhibition of fluorescent α-Ctx binding (α1β3γ2 GABAAR [3])	dose not toxic to mice (mice [4])	effect on WT receptor dose response to acetylcholine [5]	inhibition of [3H]-epibatidine binding (α4β2 nAChR)	concentrations showing cytotoxicity (different types of cells)	inhibition of GABA-evoked currents (α1β3γ2 GABAAR [6])	potency at muscle nAChR relative to human α7 nAChR (human α7 nAChR)	affinity at GABAAR (GABAAR)	LD50 [7]
Cn1cc2c3c1C(=O)C(N/C=C/c1ccc(O)cc1)=CC3=[N+](C)CC2 [MG, Makaluvamine G]	does not inhibit	629 µmol/kg	induces a drop of intrinsic tryptophan fluorescence	only weak inhibition	15 to 20 min	27%	81%	No increase in the inhibition	~3000 nM	Only partial inhibition	up to 210 mg/kg	does not affect	partial	1000 to 70000 nM	inhibits	at least one order of magnitude more potent	–	–
COc1cc2c3cc1Oc1cc(ccc1O)C[C@@H]1c4c(cc(OC)c(O)c4Oc4ccc(cc4)C[C@@H]3N(C)CC2)CC[N+]1(C)C [d-tubocurarine]	–	–	–	–	–	–	–	–	–	–	–	–	–	–	–	–	sub-micromolar	less than 0.7 μmole/kg
α-cobratoxin	–	–	–	–	–	–	–	–	–	–	–	–	–	–	–	–	sub-micromolar	–
